One assay deals with Botrytis cinerea. Description: Activity against the gray mold pathogen Botrytis cinerea in the microtiter test. Type of assay: cell-based. As to conditions: 168 h, single active compound, day 7, read-out: Observed activity (%); for inhibition at 1 ppm: conc. 1 ppm, efficacy in % of untreated control.
For the next assay, the system named is Pyricularia oryzae. Description: microbe, parasite or virus in culture. It counts as cell-based. The following applies: for inhibition at 0.25 ppm: Pyricularia oryzae, 168 h, read-out: Observed activity (%).

In the case of `COC(=O)N(OC)c1ccccc1COc1ccn(-c2ccc(Cl)cc2)n1` [II.1, pyraclostrobin], the inhibition at 1 ppm in the assay on Botrytis cinerea was found to be 19%.
As for `Cc1cc(C2CC2)nc(Nc2ccccc2)n1` [II.2, cyprodinil], in the assay with Pyricularia oryzae, the inhibition at 0.25 ppm stood at 63%. Moreover, in the assay with Botrytis cinerea (conc. 0.063 ppm), the inhibition at 0.063 ppm worked out at 72%.
`O=C(Nc1ccccc1-c1ccc(Cl)cc1)c1cccnc1Cl` [II.3, boscalid]: the inhibition at 1 ppm in the assay with Botrytis cinerea was determined as 58%.
`CC(C1CC1)C(O)(Cn1cncn1)c1ccc(Cl)cc1` (stereo not drawn) [II.4, cyproconazol]: in the assay on Pyricularia oryzae, the inhibition at 0.25 ppm amounted to 0%.
Regarding `Fc1ccc([C@]2(Cn3cncn3)O[C@H]2c2ccccc2Cl)cc1` [II.5, epoxiconazol], in the assay with Pyricularia oryzae (single active compound, conc. 0.25 ppm, day 7), the “Observed activity (%)” value was 4%.
